Consider 40 compounds from patent publication US20050197350A1, “Novel quinoline, tetrahydroquinazoline, and pyrimidine derivatives and methods of treatment related to the use thereof” (TAISHO PHARMACEUTICAL CO., LTD., priority 2003, published 2005).

This assay concerns MCH receptors. The assay is described as follows: MCH receptor activity class (method not given). The note with it: activity class per percent of control at 10^-7 M or IC50.

Take `Cc1ccc(-c2ccc(C(=O)NC[C@H]3CC[C@@H](Nc4nc5c(c(N(C)C)n4)CCCC5)CC3)o2)c([N+](=O)[O-])c1` [compound 1074]: the class was 3 (Class 3 The value of percent of control at 10^−7 M was more than 60% or the value of IC50 was more than 200 nM.).
As for `CN(C)c1nc(N[C@H]2CC[C@@H](CNC(=O)c3ccc([N+](=O)[O-])s3)CC2)nc2c1CCCC2` [compound 1075], the class was 3 (Class 3 The value of percent of control at 10^−7 M was more than 60% or the value of IC50 was more than 200 nM.).
With `Cc1cc(C(=O)NC[C@H]2CC[C@@H](Nc3nc4c(c(N(C)C)n3)CCCC4)CC2)ccc1[N+](=O)[O-]` [compound 1076] the figure was 3 (Class 3 The value of percent of control at 10^−7 M was more than 60% or the value of IC50 was more than 200 nM.); with `COc1cc(C(=O)NC[C@H]2CC[C@@H](Nc3nc4c(c(N(C)C)n3)CCCC4)CC2)ccc1[N+](=O)[O-]` [compound 1077], 3 (Class 3 The value of percent of control at 10^−7 M was more than 60% or the value of IC50 was more than 200 nM.).
For `CN(C)c1nc(N[C@H]2CC[C@@H](CNC(=O)c3cn(Cc4ccccc4)c4ccccc34)CC2)nc2c1CCCC2` [compound 1078] the value was 3 (Class 3 The value of percent of control at 10^−7 M was more than 60% or the value of IC50 was more than 200 nM.).
For `CN(C)c1nc(N[C@H]2CC[C@@H](CNC(=O)CC3=CCCCC3)CC2)nc2c1CCCC2` [compound 1079] the value was 3 (Class 3 The value of percent of control at 10^−7 M was more than 60% or the value of IC50 was more than 200 nM.).
On to `CN(C)c1nc(N[C@H]2CC[C@@H](CNC(=O)Cc3ccccc3OC(F)(F)F)CC2)nc2c1CCCC2` [compound 1081], for which the class is on record as 3 (Class 3 The value of percent of control at 10^−7 M was more than 60% or the value of IC50 was more than 200 nM.).
With `Cc1cc(C(=O)NC[C@H]2CC[C@@H](Nc3nc4c(c(N(C)C)n3)CCCC4)CC2)cc(C)c1OCc1ccccc1` [compound 1082] the figure was 3 (Class 3 The value of percent of control at 10^−7 M was more than 60% or the value of IC50 was more than 200 nM.); with `CN(C)c1nc(N[C@H]2CC[C@@H](CNC(=O)C3c4ccccc4Oc4ccccc43)CC2)nc2c1CCCC2` [compound 1083], 3 (Class 3 The value of percent of control at 10^−7 M was more than 60% or the value of IC50 was more than 200 nM.); with `CN(C)c1nc(N[C@H]2CC[C@@H](CNC(=O)Cc3csc4ccccc34)CC2)nc2c1CCCC2` [compound 1084], 3 (Class 3 The value of percent of control at 10^−7 M was more than 60% or the value of IC50 was more than 200 nM.).
Take `COc1cccc(OC)c1CN[C@H]1CC[C@@H](Nc2cc(N(C)C)c3ccccc3n2)CC1` [compound 1085]: the class is recorded as 3 (Class 3 The value of percent of control at 10^−7 M was more than 60% or the value of IC50 was more than 200 nM.).
With `CCOc1ccccc1CN[C@H]1CC[C@@H](Nc2cc(N(C)C)c3ccccc3n2)CC1` [compound 1086] the figure was 3 (Class 3 The value of percent of control at 10^−7 M was more than 60% or the value of IC50 was more than 200 nM.).
With `CN(C)c1cc(N[C@H]2CC[C@@H](NCc3c[nH]c4ccccc34)CC2)nc2ccccc12` [compound 1087] the figure was 3 (Class 3 The value of percent of control at 10^−7 M was more than 60% or the value of IC50 was more than 200 nM.).
With `COc1ccc(OC)c(CN[C@H]2CC[C@@H](Nc3cc(N(C)C)c4ccccc4n3)CC2)c1` [compound 1088], the class was 3 (Class 3 The value of percent of control at 10^−7 M was more than 60% or the value of IC50 was more than 200 nM.).
For `COc1ccc(CN[C@H]2CC[C@@H](Nc3cc(N(C)C)c4ccccc4n3)CC2)c2ccccc12` [compound 1089], the class is given as 3 (Class 3 The value of percent of control at 10^−7 M was more than 60% or the value of IC50 was more than 200 nM.).
As for `COc1ccc2[nH]cc(CN[C@H]3CC[C@@H](Nc4cc(N(C)C)c5ccccc5n4)CC3)c2c1` [compound 1090], the class is given as 3 (Class 3 The value of percent of control at 10^−7 M was more than 60% or the value of IC50 was more than 200 nM.).
For `COc1ccc2ccccc2c1CN[C@H]1CC[C@@H](Nc2cc(N(C)C)c3ccccc3n2)CC1` [compound 1091] the value was 3 (Class 3 The value of percent of control at 10^−7 M was more than 60% or the value of IC50 was more than 200 nM.).
With `COc1cc(Br)cc(CN[C@H]2CC[C@@H](Nc3cc(N(C)C)c4ccccc4n3)CC2)c1O` [compound 1092] the figure was 3 (Class 3 The value of percent of control at 10^−7 M was more than 60% or the value of IC50 was more than 200 nM.).
With `CN(C)c1cc(N[C@H]2CC[C@@H](NCc3c[nH]c4ccc(Br)cc34)CC2)nc2ccccc12` [compound 1093] the figure was 3 (Class 3 The value of percent of control at 10^−7 M was more than 60% or the value of IC50 was more than 200 nM.).
As for `COc1ccc(CN[C@H]2CC[C@@H](Nc3cc(N(C)C)c4ccccc4n3)CC2)c(OC)c1` [compound 1094], the class is on record as 3 (Class 3 The value of percent of control at 10^−7 M was more than 60% or the value of IC50 was more than 200 nM.).
For `COc1ccc(CN[C@H]2CC[C@@H](Nc3cc(N(C)C)c4ccccc4n3)CC2)c(OC)c1OC` [compound 1095] the value was 3 (Class 3 The value of percent of control at 10^−7 M was more than 60% or the value of IC50 was more than 200 nM.); for `COc1cc(CN[C@H]2CC[C@@H](Nc3cc(N(C)C)c4ccccc4n3)CC2)cc(OC)c1O` [compound 1096], 3 (Class 3 The value of percent of control at 10^−7 M was more than 60% or the value of IC50 was more than 200 nM.).
For `CCOc1cc(CN[C@H]2CC[C@@H](Nc3cc(N(C)C)c4ccccc4n3)CC2)ccc1OC` [compound 1097], the class is given as 3 (Class 3 The value of percent of control at 10^−7 M was more than 60% or the value of IC50 was more than 200 nM.).
`CN(C)c1cc(N[C@H]2CC[C@@H](NCc3c[nH]nc3-c3ccc(C(F)(F)F)cc3)CC2)nc2ccccc12` [compound 1098]: the class was 3 (Class 3 The value of percent of control at 10^−7 M was more than 60% or the value of IC50 was more than 200 nM.).
Consider `COc1cc(CN[C@H]2CC[C@@H](Nc3cc(N(C)C)c4ccccc4n3)CC2)cc(OC)c1OC` [compound 1099], for which the class was 3 (Class 3 The value of percent of control at 10^−7 M was more than 60% or the value of IC50 was more than 200 nM.).
With `COc1cc(CN[C@H]2CC[C@@H](Nc3cc(N(C)C)c4ccccc4n3)CC2)cc(OC)c1` [compound 1101] the figure was 3 (Class 3 The value of percent of control at 10^−7 M was more than 60% or the value of IC50 was more than 200 nM.); with `COc1cc(CN[C@H]2CC[C@@H](Nc3cc(N(C)C)c4ccccc4n3)CC2)cc(I)c1O` [compound 1102], 3 (Class 3 The value of percent of control at 10^−7 M was more than 60% or the value of IC50 was more than 200 nM.); with `Cc1cc(CN[C@H]2CC[C@@H](Nc3cc(N(C)C)c4ccccc4n3)CC2)cc(C)c1O` [compound 1103], 3 (Class 3 The value of percent of control at 10^−7 M was more than 60% or the value of IC50 was more than 200 nM.).
With `COc1cccc(CN[C@H]2CC[C@@H](Nc3cc(N(C)C)c4ccccc4n3)CC2)c1` [compound 1104] the figure was 3 (Class 3 The value of percent of control at 10^−7 M was more than 60% or the value of IC50 was more than 200 nM.).
`CN(C)c1cc(N[C@H]2CC[C@@H](NCc3ccc(F)c(Br)c3)CC2)nc2ccccc12` [compound 1105]: the class was 3 (Class 3 The value of percent of control at 10^−7 M was more than 60% or the value of IC50 was more than 200 nM.).
For `Cc1ccc2occ(CN[C@H]3CC[C@@H](Nc4cc(N(C)C)c5ccccc5n4)CC3)c(=O)c2c1` [compound 1107] the value was 3 (Class 3 The value of percent of control at 10^−7 M was more than 60% or the value of IC50 was more than 200 nM.); for `Cc1cc(C)c2occ(CN[C@H]3CC[C@@H](Nc4cc(N(C)C)c5ccccc5n4)CC3)c(=O)c2c1` [compound 1108], 3 (Class 3 The value of percent of control at 10^−7 M was more than 60% or the value of IC50 was more than 200 nM.).
With `Cc1cc(CN[C@H]2CC[C@@H](Nc3cc(N(C)C)c4ccccc4n3)CC2)c(C)n1-c1ccccc1` [compound 1109] the figure was 3 (Class 3 The value of percent of control at 10^−7 M was more than 60% or the value of IC50 was more than 200 nM.); with `CC(CN[C@H]1CC[C@@H](Nc2cc(N(C)C)c3ccccc3n2)CC1)c1ccccc1` (stereo partly drawn) [compound 1110, N4,N4-dimethyl-N2-{cis-4-[(2-phenylpropyl)amino]cyclohexy}quinoline-2,4-diamine], 3 (Class 3 The value of percent of control at 10^−7 M was more than 60% or the value of IC50 was more than 200 nM.); with `CCCCC/C(=C\c1ccccc1)CN[C@H]1CC[C@@H](Nc2cc(N(C)C)c3ccccc3n2)CC1` [compound 1111], 3 (Class 3 The value of percent of control at 10^−7 M was more than 60% or the value of IC50 was more than 200 nM.).
With `COc1ccccc1/C=C/CN[C@H]1CC[C@@H](Nc2cc(N(C)C)c3ccccc3n2)CC1` [compound 1112] the figure was 3 (Class 3 The value of percent of control at 10^−7 M was more than 60% or the value of IC50 was more than 200 nM.); with `CN(C)c1cc(N[C@H]2CC[C@@H](NCc3coc4ccc(Cl)cc4c3=O)CC2)nc2ccccc12` [compound 1113], 3 (Class 3 The value of percent of control at 10^−7 M was more than 60% or the value of IC50 was more than 200 nM.); with `CN(C)c1cc(N[C@H]2CC[C@@H](NCc3cncc(-c4ccc(F)cc4)c3)CC2)nc2ccccc12` [compound 1114], 3 (Class 3 The value of percent of control at 10^−7 M was more than 60% or the value of IC50 was more than 200 nM.).
Turning to `CCOC(=O)c1[nH]c2cc(Cl)cc(Cl)c2c1CN[C@H]1CC[C@@H](Nc2cc(N(C)C)c3ccccc3n2)CC1` [compound 1115], the class was 1 (Class 1: The value of percent of control at 10^−7 M was less than 40% or the value of IC50 was less than 50 nM.).
With `COC(=O)c1ccccc1Sc1nc2sccn2c1CN[C@H]1CC[C@@H](Nc2cc(N(C)C)c3ccccc3n2)CC1` [compound 1116] the figure was 3 (Class 3 The value of percent of control at 10^−7 M was more than 60% or the value of IC50 was more than 200 nM.).
